# Tested on: mouse neuronal stem cells
# Assay: Evaluation of neuronal differentiation-inducing activities of synthesized peptides (β3-tubulin fluorescence antibody method, DAPI nuclear stain)
# Assay type: cell-based
# Details: peptide 0.5 μM, 7 days culture in mouse neuronal stem cell growth medium; compared with positive control (differentiation medium, FIG. 16)
# Protocol: The neuronal differentiation-inducing activities of the synthesized peptides obtained in Example 1 (Samples 1 to 15) were examined.
# That is, the sample peptide was added to a culture broth of neuronal stem cells collected from a mouse (mouse neuronal stem cell growth medium, a product of Cell Applications), and incubated. Addition was carried out to a concentration of 0.5 μM for each peptide.
# Next, once 7 days had elapsed following peptide addition, each of the cultured cells was nuclear stained with DAPI (4′,6-diamidino-2-phenylindole) and examined with a fluorescence microscope. In addition, evaluation with a neuronal differentiation induction marker was carried out on the same samples. That is, using tubulin (specifically, β3-tubulin) as the marker for identifying neurons (nerve cells), the presence of tubulin (i.e., the presence or absence of neurons) within the culture solution was checked by a fluorescence antibody method using a fluorochrome-labeled anti-tubulin antibody for tubulin identification. The number of each figure corresponds to the number of the sample peptide used.
# Each of these figures is a fluorescence micrograph (image) obtained by examining the state of neuronal differentiation by mouse neuronal stem cells following addition of the respective sample peptides and 7 days of culturing. The image was prepared by merging a DIC image, a DAPI nuclear stain image, and a fluorescence image showing the results of an investigation by an immune antibody method using fluorochrome-labeled anti-tubulin antibody.
# (§1) As a positive control, mouse neuronal stem cells were cultured in a mouse neuronal stem cell differentiation medium (product of Cell Applications) without adding any of the peptides. When 7 days had elapsed following the start of culturing, treatment and fluorescence microscopic examination were carried out in the same way as described above.
# as §1, with “negative” for “positive”, “[…]” for “differentiation”
row,Sequence,neuronal differentiation-inducing activity
1,ALLLLAAWTVRAGKKRTLRKNDRKKR [Sample 7],particularly high neuronal differentiation-inducing activities
2,LLLLAAWTVRAGKKRTLRKNDRKKR [Sample 8],particularly high neuronal differentiation-inducing activities
3,LALLLLAAWTVRAGKKRTLRKNDRKKR [Sample 6],particularly high neuronal differentiation-inducing activities
4,LLLLAAWTARAGKKRTLRKNDRKKR [Sample 2],particularly high neuronal differentiation-inducing activities
